PubChem BioAssay (NCI)
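Growth conditions: 96-well plates. Treatment: test compound, 48 hours, 5 concentrations. Analysis: linear interpolation between bracketing concentrations; unreached endpoints set to highest concentration. At the TGI there is no net growth.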

Tests used:
Assay in all cases: NCI-60 cell line screen, 48 h
[1] = test system: SK-MEL-28 melanoma
[2] = test system: NCI-H460 lung
[3] = test system: NCI-H23 lung
[4] = test system: OVCAR-4 ovarian
[5] = test system: SN12C renal
[6] = test system: MDA-MB-435
[7] = test system: NCI-H522 lung
[8] = test system: SK-MEL-5 melanoma
[9] = test system: DU-145 prostate
[10] = test system: ACHN renal
[11] = test system: HS 578T breast
[12] = test system: A498 renal
[13] = test system: HT29 colon
[14] = test system: BT-549 breast
[15] = test system: SK-OV-3 ovarian
[16] = test system: T-47D breast
[17] = test system: OVCAR-8 ovarian
[18] = test system: M14 melanoma
[19] = test system: SF-295 CNS
[20] = test system: HCC-2998 colon
[21] = test system: HCT-116 colon
[22] = test system: CCRF-CEM leukemia
[23] = test system: MDA-N
[24] = test system: EKVX NSCLC
[25] = test system: NCI-H226 lung
[26] = test system: UO-31 renal
[27] = test system: HCT-15 colon
[28] = test system: CAKI-1 renal
[29] = test system: HOP-92 NSCLC
[30] = test system: U251 CNS
[31] = test system: K-562 leukemia
[32] = test system: RXF 393 renal
[33] = test system: 786-0 renal
[34] = test system: OVCAR-5 ovarian
[35] = test system: SF-539 CNS
[36] = test system: IGROV1 ovarian
[37] = test system: MALME-3M melanoma
[38] = test system: MCF7 breast
[39] = test system: LOX IMVI melanoma
[40] = test system: COLO 205 colon
[41] = test system: SNB-19 CNS
[42] = test system: HL-60(TB) leukemia
[43] = test system: SF-268 CNS
[44] = test system: MOLT-4 leukemia
[45] = test system: UACC-62 melanoma
[46] = test system: OVCAR-3 ovarian
[47] = test system: PC-3 prostate
[48] = test system: TK-10 renal
[49] = test system: UACC-257 melanoma
[50] = test system: SK-MEL-2 melanoma
[51] = test system: KM12 colon
[52] = test system: MDA-MB-231 breast
[53] = test system: A549 NSCLC
[54] = test system: SW-620 colon
[55] = test system: NCI/ADR-RES ovarian
[56] = test system: RPMI-8226 leukemia
[57] = test system: HOP-62 NSCLC

CC(C#N)NCc1ccc(C(C)NC(C)C#N)cc1 (stereo not given)
TGI [1]: > 100 µM
TGI [2]: > 100 µM
TGI [3]: > 100 µM
TGI [4]: > 100 µM
TGI [5]: > 100 µM
TGI [6]: > 100 µM
TGI [7]: > 100 µM
TGI [8]: > 100 µM
TGI [9]: > 100 µM
TGI [10]: > 100 µM
TGI [11]: > 100 µM
TGI [12]: > 100 µM
TGI [13]: > 100 µM
TGI [14]: > 100 µM
TGI [15]: > 100 µM
TGI [16]: > 100 µM
TGI [17]: > 100 µM
TGI [18]: > 100 µM
TGI [19]: > 100 µM
TGI [20]: > 100 µM
TGI [21]: > 100 µM
TGI [22]: > 100 µM
TGI [23]: > 100 µM
TGI [24]: > 100 µM
TGI [25]: > 100 µM
TGI [26]: > 100 µM
TGI [27]: > 100 µM
TGI [28]: > 100 µM
TGI [29]: > 100 µM
TGI [30]: > 100 µM
TGI [31]: > 100 µM
TGI [32]: > 100 µM
TGI [33]: > 100 µM
TGI [34]: > 100 µM
TGI [35]: > 100 µM
TGI [36]: > 100 µM
TGI [37]: > 100 µM
TGI [38]: > 100 µM
TGI [39]: > 100 µM
TGI [40]: > 100 µM
TGI [41]: > 100 µM
TGI [42]: > 100 µM
TGI [43]: > 100 µM
TGI [44]: > 100 µM
TGI [45]: > 100 µM
TGI [46]: > 100 µM
TGI [47]: > 100 µM
TGI [48]: > 100 µM
TGI [49]: > 100 µM
TGI [50]: > 100 µM
TGI [51]: > 100 µM
TGI [52]: > 100 µM
TGI [53]: > 100 µM
TGI [54]: > 100 µM
TGI [55]: > 100 µM

COC(=O)C1=C(C(=O)OC)SC2(S1)C1=C(CCC1)SC(C(=O)OC)=C2C(=O)OC
TGI [1]: 25.3 µM
TGI [2]: 20.2 µM
TGI [3]: 37 µM
TGI [4]: 28.9 µM
TGI [5]: 23.4 µM
TGI [6]: 26 µM
TGI [7]: 9.08 µM
TGI [8]: 36 µM
TGI [9]: 15.8 µM
TGI [10]: 24.8 µM
TGI [11]: 35.4 µM
TGI [12]: 22.7 µM
TGI [13]: 18.5 µM
TGI [14]: 31.3 µM
TGI [15]: 30.5 µM
TGI [16]: 46.3 µM
TGI [17]: 24.6 µM
TGI [18]: 35.3 µM
TGI [19]: 28.9 µM
TGI [20]: 33 µM
TGI [21]: 3.65 µM
TGI [22]: 12.5 µM
TGI [56]: > 100 µM
TGI [23]: 29.6 µM
TGI [24]: 29 µM
TGI [26]: 22.7 µM
TGI [27]: 21.5 µM
TGI [28]: 18.1 µM
TGI [29]: 22.5 µM
TGI [30]: 29.2 µM
TGI [31]: > 100 µM
TGI [32]: 16.7 µM
TGI [34]: 34.6 µM
TGI [35]: 4.32 µM
TGI [36]: 26.6 µM
TGI [37]: 36 µM
TGI [38]: 22.4 µM
TGI [39]: 15.3 µM
TGI [40]: 42 µM
TGI [41]: 36.8 µM
TGI [42]: > 100 µM
TGI [43]: 34.4 µM
TGI [44]: 16.8 µM
TGI [57]: 26.2 µM
TGI [45]: 34 µM
TGI [46]: 24.6 µM
TGI [47]: 23.3 µM
TGI [48]: 29.1 µM
TGI [49]: 31.8 µM
TGI [50]: 35.8 µM
TGI [51]: 32.1 µM
TGI [52]: 33.4 µM
TGI [53]: 32.8 µM
TGI [54]: 37.5 µM
TGI [55]: 39 µM
